Test results reported in US20100144758A1, “AZAINDOLE P2X3 AND P2X2/3 MODULATORS” (priority 2008, published 2010).

What was measured:
rat P2X3 receptor = molecular target: T1, rat P2X3 receptor (Rattus norvegicus, UniProt P49654); assay: P2X3 FLIPR (Fluorometric Imaging Plate Reader) assay; assay type: cell-based; settings: CHO-K1 cells transfected with rat P2X3; agonist α,β-meATP 1 μM; Fluo-3 calcium fluorescence
T1 construct: expressed in transfected cells; host or cells: CHO-K1
T1 sequence (P49654 1-397): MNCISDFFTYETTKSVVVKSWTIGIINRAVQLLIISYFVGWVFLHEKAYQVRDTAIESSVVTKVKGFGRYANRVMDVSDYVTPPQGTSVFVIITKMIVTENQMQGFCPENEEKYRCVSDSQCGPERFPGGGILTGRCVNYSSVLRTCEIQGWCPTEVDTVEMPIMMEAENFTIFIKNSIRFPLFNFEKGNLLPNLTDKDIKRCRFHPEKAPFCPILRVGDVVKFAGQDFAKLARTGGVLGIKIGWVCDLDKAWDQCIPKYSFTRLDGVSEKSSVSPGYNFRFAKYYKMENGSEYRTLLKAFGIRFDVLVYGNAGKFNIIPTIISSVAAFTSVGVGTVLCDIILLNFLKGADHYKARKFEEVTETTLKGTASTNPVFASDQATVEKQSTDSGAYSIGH
Method: (§1) CHO-K1 cells were transfected with cloned rat P2X3 or human P2X2/3 receptor subunits and passaged in flasks. 18-24 hours before the FLIPR experiment, cells were released from their flasks, centrifuged, and resuspended in nutrient medium at 2.5×10^5 cells/ml. The cells were aliquoted into black-walled 96-well plates at a density of 50,000 cells/well and incubated overnight in 5% CO2 at 37° C. On the day of the experiment, cells were washed in FLIPR buffer (calcium- and magnesium-free Hank's balanced salt solution, 10 mM HEPES, 2 mM CaCl2, 2.5 mM probenecid; FB). Each well received 100 μl FB and 100 μl of the fluorescent dye Fluo-3 AM [2 μM final conc.]. […]
(§2) Test compounds (dissolved in DMSO at 10 mM and serially diluted with FB) or vehicle were added to each well (25 μl of a 4× solution) and allowed to equilibrate for 20 minutes at room temperature. The plates were then placed in the FLIPR and a baseline fluorescence measurement (excitation at 488 nm and emission at 510-570 nm) was obtained for 10 seconds before a 100 μl/well agonist or vehicle addition. […] Fluorescence was measured for an additional 2 minutes at 1 second intervals after agonist addition. A final addition of ionomycin (5 μM, final concentration) was made to each well of the FLIPR test plate to establish cell viability and maximum fluorescence of dye-bound cytosolic calcium. […]

human P2X2/3 receptor = molecular target: T2, human P2X2/3 receptor (Homo sapiens, UniProt P56373+Q9UBL9); assay: P2X2/3 FLIPR (Fluorometric Imaging Plate Reader) assay; assay type: cell-based; settings: CHO-K1 cells transfected with human P2X2/3; agonist α,β-meATP 5 μM; Fluo-3 calcium fluorescence
T2 construct: expressed in transfected cells; host or cells: CHO-K1
T2 sequence (Q9UBL9 1-471): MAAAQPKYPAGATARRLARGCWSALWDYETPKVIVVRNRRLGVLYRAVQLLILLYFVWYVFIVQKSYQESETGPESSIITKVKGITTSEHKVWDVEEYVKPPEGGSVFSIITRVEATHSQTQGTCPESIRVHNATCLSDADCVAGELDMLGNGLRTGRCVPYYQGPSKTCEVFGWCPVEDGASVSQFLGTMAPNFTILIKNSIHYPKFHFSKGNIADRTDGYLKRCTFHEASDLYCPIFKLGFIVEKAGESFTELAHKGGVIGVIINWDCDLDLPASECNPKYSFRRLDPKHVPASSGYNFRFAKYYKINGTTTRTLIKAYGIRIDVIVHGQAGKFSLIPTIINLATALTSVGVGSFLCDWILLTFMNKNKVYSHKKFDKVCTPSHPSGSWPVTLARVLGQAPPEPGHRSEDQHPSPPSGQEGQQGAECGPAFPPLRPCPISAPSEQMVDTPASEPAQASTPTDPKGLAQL
T2 sequence (P56373 1-397): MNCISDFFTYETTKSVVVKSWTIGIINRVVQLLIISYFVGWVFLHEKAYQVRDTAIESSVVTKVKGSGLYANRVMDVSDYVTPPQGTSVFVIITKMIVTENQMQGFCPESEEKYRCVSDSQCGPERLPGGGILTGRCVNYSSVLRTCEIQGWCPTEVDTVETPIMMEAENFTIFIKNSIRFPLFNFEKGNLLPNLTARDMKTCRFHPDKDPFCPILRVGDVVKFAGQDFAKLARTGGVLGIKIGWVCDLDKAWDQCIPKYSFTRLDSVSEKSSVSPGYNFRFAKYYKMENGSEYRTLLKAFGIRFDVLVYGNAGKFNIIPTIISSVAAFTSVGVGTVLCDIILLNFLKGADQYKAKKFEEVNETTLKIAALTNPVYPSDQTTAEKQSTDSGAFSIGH
Method: as §1, §2

| IC50 (rat P2X3 receptor) [nM] | IC50 (human P2X2/3 receptor) [nM] | Compound |
| --- | --- | --- |
| ~309 |  | Cc1cccc(-n2cc(-c3ccc(F)cc3)c3c(NC4CCOCC4)ncnc32)c1 [Compound 11, [5-(4-Fluoro-phenyl)-7-m-tolyl-7H-pyrrolo[2,3-d]pyrimidin-4-yl]-(tetrahydro-pyran-4-yl)-amine] |
|  | ~501 | Cc1ccc(-n2cc(-c3ccccc3)c3c(N[C@H](C)CO)ncnc32)cc1Cl [Compound 12, (R)-2-[7-(3-Chloro-4-methyl-phenyl)-5-phenyl-7H-pyrrolo[2,3-d]pyrimidin-4-ylamino]-propan-1-ol] |
